Read-outs that look alike come from different tables or passages of the source.
Legend:
[1] = system: patients with type 1 diabetes; experiment: Example 2 b): 6-month extension trial (12 months of treatment), insulin detemir vs NPH insulin, IAsp as meal related insulin; format: in vivo, human; details: for ANOVA of weight after 12 months of treatment, ITT, Mean (least square mean): IAsp as meal related insulin; for body weight at End of trial, Mean: End of trial (12 months)
Source text: A 6-month extension of a multi-centre, open-label, asymmetrically randomised, parallel trial.
Patients who agreed to participate in the extension period continued treatment without interruption.
Following completion of the 6-month initial period, the extension period included 3 visits (0, 3 and 6 months after the start of the extension period).
The patients were advised to maintain their usual diet and daily activities.
All patients who completed the 6-month treatment period in the trial described under Section a) above and who were able and willing to participate in the extension period were included. Thus, the Section b) trial included 316 patients.

[2] = system: patients with type 1 diabetes; experiment: Example 3: 6-month open-label parallel trial, once daily insulin detemir vs NPH insulin, basal/bolus regimen with human soluble insulin; format: in vivo; details: for ANOVA of weight after 6 months of treatment, ITT, Mean (least square mean): once daily basal, human soluble insulin at meals; for body weight at End of trial, Mean: End of trial (6 months)
Source text: All patients were on a basal/bolus insulin regimen with human soluble insulin as meal-related insulin. […] The trial included a screening visit to assess patient eligibility and a randomisation visit (maximum 3 weeks after the screening visit) followed by a six-month treatment period. In order to achieve glycaemic control, the investigator had contact with the patients at least every other working day during the first two weeks of treatment or as long as necessary to achieve glycaemic control. A post-treatment follow-up visit was performed 2-6 days after the last visit.
The study included 750 type 1 diabetic patients aged 18 years or above and having a HbAtc≦12%. […] The patients were to have no major diabetic complications or other significant diseases.

[3] = system: patients with type 2 diabetes; experiment: Example 4: 6-month open parallel trial, insulin detemir vs NPH insulin once or twice daily, basal/bolus regimen with NovoRapid; format: in vivo, human; details: for ANOVA of weight after 6 months of treatment, ITT, Mean (least square mean): NovoRapid with meals; for body weight at End of trial, Mean: End of trial (6 months)
Source text: Multicentre, open, randomised, parallel trial comprising a screening visit and a randomisation visit followed by a six month treatment period of basal/bolus therapy with either insulin detemir or NPH once or twice daily as needed. The patients received NovoRapid® with meals as bolus insulin throughout the trial.
The study included 506 type 2 diabetic patients aged 35 years or above with type 2 diabetes for ≧12 months treated with insulin or insulin analogues for at least 2 months, with a HbA1c≦12.0%, a basal insulin dose ≧30% of the total daily insulin dose and no other clinically relevant diseases were included in the trial.

[4] = system: patients with type 1 diabetes; experiment: Example 5: 16-week three arm trial, insulin detemir morning and pre-dinner, insulin detemir morning and bedtime, NPH insulin morning and bedtime, insulin aspart with meals; format: in vivo, human; details: for body weight at Baseline, Mean / body weight at End of trial, Mean: both detemir groups pooled; for body weight at End of trial, Mean: End of trial (16 weeks)
Experimental: All patients received insulin aspart (IAsp) with meals. The trial included a Screening Visit to assess patient eligibility and a Randomisation Visit (maximum 2 weeks after the Screening Visit). The following 16 week treatment period included 5 visits. In addition, patients were contacted every second day in the first two weeks (or longer if necessary) to ensure that optimal basal insulin dose was achieved fast and smoothly. A post-treatment telephone Follow-up was performed approximately one week after the last visit.
The study included 400 type 1 diabetic patients aged 18 or above with a BMI of ≦[…] and HbA1c<12%. The patients had had diabetes ≧12 months and had been treated on a basal/bolus regimen ≧2 months with a basal insulin requirement of ≧30% of the total daily insulin dose, and a total daily basal insulin dose below 100 IU. Patients were to have no major diabetic complications or other significant diseases.

[5] = system: patients with type 1 diabetes; experiment: Example 6: 16-week three-group trial, insulin detemir at 12-hour intervals, insulin detemir morning and bedtime, NPH morning and bedtime, insulin aspart at meals; format: in vivo, human; details: for average body weight gained: Morn_Bed groups; for body weight at Baseline, Mean / body weight at End of trial, Mean: both detemir groups pooled; for body weight at End of trial, Mean: End of trial (16 weeks)
Experimental: A 16 week, multi-centre, multi-national, open, randomised three-group parallel study comparing administration of insulin detemir at 12-hour intervals, insulin detemir morning and bedtime and NPH morning and bedtime in patients with type 1 diabetes
All patients received insulin aspart at meals. The trial included a Screening Visit to assess patient's eligibility and a Randomisation Visit, followed by a treatment period 16 of weeks. A post-treatment follow-up Visit was carried out approximately 1 week after the last visit.
The study included 409 type 1 diabetic patients aged 18 or above and HbA1c≦12%. The patients had had diabetes >12 months and had been treated on a basal (twice daily)/bolus regimen ≧2 months using an intermediate/long-acting insulin as a basal insulin and fast-acting human insulin or insulin analogue as bolus insulin.

[6] = system: patients with type 1 diabetes; details: for ANOVA of weight after 6 months of treatment, ITT, Mean (least square mean): type 1 diabetes, human soluble insulin as bolus, baseline weight as covariate
Source text: Material and Methods: A total of 460 patients with no clinically significant diseases or diabetic complications were exposed (287 men and 173 women).
(§1) The analysis is based upon an ANOVA model with treatment and country as fixed effects and weight at baseline as covariate.

[7] = system: patients with type 1 diabetes; details: for ANOVA of weight after 6 months of treatment, ITT, Mean (least square mean): insulin aspart as bolus; for HbA, levels: After 6 months; for plasma glucose at 07:00: nightly plasma glucose profile, p<0.05
Source text: One of the secondary objectives of the study was to compare the regimens in terms of the safety profile, including the body weight of the patients.
The analysis is based upon an ANOVA model with treatment as fixed effect and weight at baseline as covariate.

[8] = system: adult patients with type 1 diabetes; experiment: Example 1 b): 6-month extension trial (12 months of treatment), insulin detemir vs NPH insulin, human soluble insulin as meal related insulin; details: for ANOVA of weight after 12 months of treatment, ITT, Mean (least square mean): human soluble insulin as meal related insulin; for body weight at End of trial, Mean: End of trial (12 months)
Source text: (§2) All patients were on a basal (twice-daily)-bolus regimen with human soluble insulin as meal related insulin:
as §1

[9] = system: adult patients with type 1 diabetes; details: in vivo
Source text: as §2, §1

[10] = 16 weeks, Morn_Bed (morning and bedtime)
[11] = 12 months, difference between treatments
[12] = 12 months, not statistically significant
[13] = 6 months, difference between treatments

Substance: NPH insulin: comparator basal insulin in the trials [reference compound]
- average body weight gained during the trial ([1]; 12 months): 1.2 kg
- ANOVA of weight after 12 months of treatment, ITT, Mean (least square mean) ([1]; 12 months): 72.8 kg
- body weight at Baseline, Mean [1]: 71.5 kg
- body weight at End of trial, Mean [1]: 72.7 kg
- average body weight gained during the trial ([2]; 6 months): 0.4 kg
- ANOVA of weight after 6 months of treatment, ITT, Mean (least square mean) ([2]; 6 months): 76.7 kg
- body weight at Baseline, Mean [2]: 76.1 kg
- body weight at End of trial, Mean [2]: 76.5 kg
- increase of mean body weight ([3]; 6 months): 1.3 kg
- ANOVA of weight after 6 months of treatment, ITT, Mean (least square mean) ([3]; 6 months): 88.6 kg
- body weight at Baseline, Mean [3]: 89.7 kg
- body weight at End of trial, Mean [3]: 91.0 kg
- ANOVA of Weight after 16 Weeks of Treatment, Adjusted for Change in HbA1c, ITT, Mean (least square mean) [4, 10]: 76.40 kg
- body weight at Baseline, Mean [4]: 74.5 kg
- body weight at End of trial, Mean [4]: 75.3 kg
- ANOVA of Weight after 16 Weeks of Treatment, Adjusted for Change in HbA1c, ITT, Mean (least square mean) [5, 10]: 76.04 kg
- average body weight gained ([5]; 16 weeks): 0.7 kg
- body weight at Baseline, Mean [5]: 74.5 kg
- body weight at End of trial, Mean [5]: 75.3 kg
- average body weight gained during the trial ([6]; 6 months): 0.7 kg
- ANOVA of weight after 6 months of treatment, ITT, Mean (least square mean) ([6]; 6 months): 76.5 kg
- ANOVA of weight after 6 months of treatment, ITT, Mean (least square mean) ([7]; 6 months): 71.8 kg
- HbA, levels [7]: 7.64%
- plasma glucose at 07:00 [7]: 9.5 mM/L
- average body weight gained ([7]; over 6 months): 0.7 kg
- ANOVA of weight after 12 months of treatment, ITT, Mean (least square mean) ([8]; 12 months): 76.9 kg
- weight gain ([8]; 12 months, statistically significant): 1.4 kg
- body weight at Baseline, Mean [8]: 75.8 kg
- body weight at End of trial, Mean [8]: 77.2 kg
- proportion of patients with serious adverse events ([8]; during 12 months): 13.4%

Substance: N^εB29-tetradecanoyl des(B30) human insulin [Insulin detemir]
- ANOVA of weight after 12 months of treatment, ITT, Mean (least square mean) ([1]; 12 months): 71.5 kg
- ANOVA of weight after 12 months, insulin detemir − NPH, Mean [1, 11]: -1.34 kg
- average body weight lost during the trial [1, 12]: 0.1 kg
- body weight at Baseline, Mean [1]: 71.4 kg
- body weight at End of trial, Mean [1]: 71.3 kg
- difference in body weight between the groups ([1]; after 12 months, statistically significant): 1.3 kg
- average body weight lost during the trial ([2]; 6 months): 0.2 kg
- ANOVA of weight after 6 months, insulin detemir − NPH, Mean [2, 13]: -0.52 kg
- ANOVA of weight after 6 months of treatment, ITT, Mean (least square mean) ([2]; 6 months): 76.2 kg
- body weight at Baseline, Mean [2]: 76.5 kg
- body weight at End of trial, Mean [2]: 76.3 kg
- increase of mean body weight ([3]; 6 months): 0.4 kg
- ANOVA of weight after 6 months of treatment, ITT, Mean (least square mean) ([3]; 6 months): 87.8 kg
- ANOVA of weight after 6 months, insulin detemir − NPH, Mean [3, 13]: -0.79 kg
- body weight at Baseline, Mean [3]: 85.4 kg
- body weight at End of trial, Mean [3]: 85.8 kg
- Weight, Pairwise Comparison, Mean Difference Detemir Morn_Bed - NPH Morn_Bed ([4]; 16 weeks): -0.6 kg
- Weight, Pairwise Comparison, Mean Difference Detemir Morn_Dinner - Detemir Morn_Bed ([4]; 16 weeks): -0.7 kg
- Weight, Pairwise Comparison, Mean Difference Detemir Morn_Dinner - NPH Morn_Bed ([4]; 16 weeks): -1.3 kg
- ANOVA of Weight after 16 Weeks of Treatment, Adjusted for Change in HbA1c, ITT, Mean (least square mean) [4, 10]: 75.81 kg
- ANOVA of Weight after 16 Weeks of Treatment, Adjusted for Change in HbA1c, ITT, Mean (least square mean) ([4]; 16 weeks, Morn_Dinner (morning and pre-dinner)): 75.12 kg
- Weight in both insulin detemir groups compared with NPH insulin ([4]; 16 weeks, statistically significant): lower
- body weight at Baseline, Mean [4]: 76.3 kg
- body weight at End of trial, Mean [4]: 76.2 kg
- Weight, Pairwise Comparison, Mean Diff. Detemir Morn_Bed - NPH Morn_Bed ([5]; 16 weeks): -0.6 kg
- ANOVA of Weight after 16 Weeks of Treatment, Adjusted for Change in HbA1c, ITT, Mean (least square mean) ([5]; 16 weeks, 12 h_interval): 75.20 kg
- average change of body weight ([5]; 16 weeks, 12 h_interval group): maintained their weight
- ANOVA of Weight after 16 Weeks of Treatment, Adjusted for Change in HbA1c, ITT, Mean (least square mean) [5, 10]: 75.41 kg
- average body weight gained ([5]; 16 weeks): 0.2 kg
- Weight, Pairwise Comparison, Mean Diff. Detemir 12 h_interval - NPH Morn_Bed ([5]; 16 weeks, first comparison, p=0.0061): -0.8 kg
- Weight, Pairwise Comparison, Mean Diff. Detemir 12 h_interval - NPH Morn_Bed ([5]; 16 weeks, third comparison as printed, p=0.4772): -0.2 kg
- body weight at Baseline, Mean [5]: 76.3 kg
- body weight at End of trial, Mean [5]: 76.2 kg
- 9-point blood glucose profiles, insulin detemir and NPH ([6]; 6 months): comparable
- average body weight lost during the trial ([6]; 6 months): 0.5 kg
- ANOVA of weight after 6 months of treatment, ITT, Mean (least square mean) ([6]; 6 months): 75.4 kg
- HbA1c absolute mean difference between treatments (insulin detemir-NPH) ([6]; after 6 months, 95% CI [−0.05, 0.22]): 0.08 % point
- number of patients with hypoglycaemic episodes between the two treatments ([6]; in vivo): not statistically significantly different
- safety profiles between the two treatments ([6]; in vivo): comparable
- intra-patient variation in fasting blood glucose (FBG) vs NPH ([6]; not statistically significant, p=0.06): tendency towards lower intra-patient variation
- difference in FPG between treatments ([6]; p=0.78): No statistically significant difference
- proportion of patients with serious adverse events [9]: 9.1%
- risk of hypoglycemia during the night, relative risk (detemir/NPH) [9]: 0.71
- ANOVA of weight after 6 months of treatment, ITT, Mean (least square mean) ([7]; 6 months): 70.9 kg
- Fasting plasma glucose difference, insulin detemir vs NPH insulin ([7]; 6 months, not statistically significant, p=0.097): -0.76 mM
- difference in mean body weight between the groups ([7]; 6 months, statistically significant): 1 kg
- HbA, levels [7]: 7.60%
- Body weight (baseline adjusted) vs NPH insulin ([7]; at the end of the trial, p<0.001): significantly lower
- general safety profile between the two treatments ([7]; in vivo): similar
- plasma glucose at 07:00 [7]: 7.6 mM/L
- average body weight lost ([7]; over 6 months, not statistically significant): 0.2 kg
- shapes of the nightly plasma glucose profiles vs NPH insulin ([7]; p=0.05): smoother and more stable
- ANOVA of weight after 12 months, insulin detemir − NPH, Mean [8, 11]: -1.66 kg
- ANOVA of weight after 12 months of treatment, ITT, Mean (least square mean) ([8]; 12 months): 75.2 kg
- weight loss [8, 12]: 0.3 kg
- body weight at Baseline, Mean [8]: 76.6 kg
- body weight at End of trial, Mean [8]: 76.3 kg
- HbA1c ([8]; after 12 months of treatment): 7.9%
- difference in body weight between groups ([8]; after 12 months of treatment, p=0.002): 1.7 kg

From patent US20030224973A1, “Minimising body gain in insulin treatment” (priority 2002, published 2003)
